Experimental data taken from patent US20250262188A1, “Methods of Increasing the Plasma Drug Exposure of Anticancer Agents” (Scandion Oncology A/S, priority 2021, published 2025).
“Also recorded” adds a separate entry of the source. Like-named read-outs stand apart in the source and are kept apart here. One block for each compound: values may come before it.

What was measured:
[1] = target: T1, BCRP (Homo sapiens, UniProt Q9UNQ0); assay: 3H-SN-38 uptake in HT29 parental cell monolayers (Example 6); type: cell-based; details: 25 μM test compound; HT29 parental; ANOVA α=0.05
T1 construct: endogenous in cells; host or cells: HT29 parental and HT29 SN38-resistant colorectal cancer cells
T1 sequence (Q9UNQ0 1-655): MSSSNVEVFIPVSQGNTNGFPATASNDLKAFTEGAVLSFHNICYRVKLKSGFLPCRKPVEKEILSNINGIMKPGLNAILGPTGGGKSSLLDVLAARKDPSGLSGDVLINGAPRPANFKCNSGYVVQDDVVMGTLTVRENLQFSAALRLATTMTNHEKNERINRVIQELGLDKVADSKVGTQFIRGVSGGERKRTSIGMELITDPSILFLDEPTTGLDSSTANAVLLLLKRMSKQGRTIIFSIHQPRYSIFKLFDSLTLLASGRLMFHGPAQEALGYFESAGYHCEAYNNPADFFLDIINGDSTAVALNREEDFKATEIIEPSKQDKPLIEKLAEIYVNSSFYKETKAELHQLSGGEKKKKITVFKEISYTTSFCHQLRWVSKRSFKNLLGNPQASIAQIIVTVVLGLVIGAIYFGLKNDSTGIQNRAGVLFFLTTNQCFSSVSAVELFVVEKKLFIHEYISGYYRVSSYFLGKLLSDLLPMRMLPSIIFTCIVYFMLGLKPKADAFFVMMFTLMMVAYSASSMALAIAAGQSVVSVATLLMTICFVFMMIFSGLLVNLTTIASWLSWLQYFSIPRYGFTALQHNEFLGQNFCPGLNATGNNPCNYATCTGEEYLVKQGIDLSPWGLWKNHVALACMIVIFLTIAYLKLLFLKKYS
Method: (§1) All treatments were investigated in three technical replicates (N=3). On the day of experimentation, the culture media was exchanged with 100 μL transport buffer (HBSS, 0.05% BSA, 10 mM HEPES, pH 7.4) and cells were incubated for 15 minutes at 37° C.
(§2) Subsequently, the blank transport buffer was exchanged with 50 μL transport buffer containing the different compounds (in 2x of the final concentration) to be tested and incubated for 15 minutes at 37° C. The uptake experiment was started by adding 50 μL of ^3H-SN38 at a concentration of 2 μCi/mL to all wells (the resulting concentration of ^3H-SN38 during the experiment was 1 μCi/mL). The uptake experiment was stopped after 15 minutes of incubation at 37° C. by removing the transport buffer from all wells.
(§3) The cell monolayers were subsequently washed twice by adding/removing ice-cold transport buffer twice and finally the cell monolayers were lysed by incubation in 100 μl of 0.1% TritonX-100 for 15 minutes at ambient temperature. Cell lysates were transferred to scintillation vials containing 2 mL of scintillation fluid (Ultima Gold, PerkinElmer). Each well was washed with 2×100 μL purified water (milliQ), which was also transferred to respective scintillation vials.

[2] = target: T1, BCRP; assay: 3H-SN-38 uptake in HT29 SN-38 resistant cell monolayers (Example 6); type: cell-based; details: 25 μM test compound, HT29 SN-38 resistant, ANOVA α=0.05
Method: as §1, §2, §3

[3] = SN-38 and irinotecan PK in patients with 100 or 150 mg SCO-101 and FOLFIRI versus literature (Example 7); details: for AUC Mean (SD) / Cmax Mean (SD): Irinotecan (FOLFIRI) Norm 125 mg/m2, add-on 150 mg SCO-101 (n = 10)
[4] = Irinotecan (Camptosar) Norm 125 mg/m2, NO SCO-101 (n = 99), literature value; cited from earlier work
[5] = SN-38 PK profile and tolerability in metastatic colorectal cancer patients treated with SCO-101 and FOLFIRI (Example 2); type: in vivo, human
Method: Patients with metastatic colorectal cancer were included in a study and treated with a combination of SCO-101 and FOLFIRI (combination of irinotecan, 5-FU and leucovorin) in 14 day treatment cycles. Patients received varying doses of Irinotecan between 50% and 80% of the recommended dose of Irinotecan (180 mg/m^2) according to their individual tolerability, which is standard practise. On days 1, 2, 3, 4, 5 and 6 in each treatment cycle, patients received one fixed daily dose of 150 mg SCO-101 taken in the morning at least 30 minutes before ingestion of food. On day 5 to 7, patients received FOLFIRI as specified for Colorectal cancer combination regimen 2.
Blood plasma samples were analysed for concentrations of SCO-101, irinotecan and SN-38 using Liquid Chromatography with Tandem Mass Spectrometric Detection (LC-MS/MS) bioanalytical method calibrated and validated in the rant 300 to 90.000 ng/ml. The method and system, including validation were according to industry standard. Data were analysed using commercially available software such as Win-Non-Lin (available from Certara inc.)
A trial was setup to address the safety, tolerability, and efficacy of SCO-101 given orally for 6 days followed by FOLFIRI at varying doses from day 5 to 7, in a biweekly schedule, in patients with metastatic colorectal cancer who have formerly been treated with FOLFIRI and afterwards progressed. The first part of the study was a dose-finding study, where the impact of SCO-101 on the pharmacokinetics (PK) of SN-38 was studied.
12 patients from the dose-finding part of the study received 150 mg SCO-101 for 6 days and […] of the recommended dose of FOLFIRI. 6 of the patients had RAS wildtype tumors and these patients were subjected to further analysis.
Blood for pharmacokinetic analysis was sampled from the patients were taken at 1, 2, 4, 8, 24, 48, and 96 hours after treatment with FOLFIRI and SCO-101.

[6] = FIG. 1A, cited from earlier work
[7] = SN-38, 90 mg/m2 irinotecan + SCO-101 vs 180 mg/m2 standard

Uptake of SN-38 relative to blank HBSS transport buffer control [1]: significant increase | Uptake of SN-38 relative to blank HBSS transport buffer control ([2]; listed as CGP5738): not different
Compound: Nc1ncnc2n[nH]c(Nc3ccc(F)cc3)c12 [CGP57380]

Uptake of SN-38 relative to blank HBSS transport buffer control [1]: significant increase
Compound: O=C(Nc1cc(C(F)(F)F)ccc1N1CCCCC1)c1ccncc1 [Srpin340]
Uptake of SN-38 relative to blank HBSS transport buffer control [2]: significantly increased; also recorded: significant increase

Uptake of SN-38 relative to blank HBSS transport buffer control [1]: significant increase
Compound: Cc1cc(Nc2cc(N)ncn2)c(=O)n2c1C(=O)NC21CCCCC1 [Tomivorsetib]
Uptake of SN-38 relative to blank HBSS transport buffer control [2]: significantly increased; also recorded: significant increase

Continued, compound first:

Compound: CCc1c2c(nc3ccc(OC(=O)N4CCC(N5CCCCC5)CC4)cc13)-c1cc3c(c(=O)n1C2)COC(=O)[C@]3(O)CC [Irinotecan]
AUC Mean (SD) [3]: 12565 ng·h/mL | Cmax Mean (SD) [3]: 1457 ng/mL | AUC Mean (SD) [4]: 10529 ng·h/mL | Cmax Mean (SD) [4]: 1492 ng/mL

Compound: CCc1c2c(nc3ccc(O)cc13)-c1cc3c(c(=O)n1C2)COC(=O)[C@]3(O)CC [SN-38]
Fold increase in AUC of SN-38 vs 125 mg/m2 irinotecan administered alone ([3]; 100 mg SCO-101): approximately 5 fold | Fold increase in AUC of SN-38 vs 125 mg/m2 irinotecan administered alone ([3]; 150 mg SCO-101): ~8 fold | AUC Mean (SD) [3]: 2088 ng·h/mL | Cmax Mean (SD) [3]: 86 ng/mL | Fold increase (study vs Standard) of AUC_0-24 [5, 7]: 3.7 | Fold increase (study vs Standard) of Cmax [5, 7]: 1.5 | Fold increase (study vs Standard) of T½ [5, 7]: 1.6 | half-life ([5]; human, plasma, intravenous, SN-38 study: 150 mg SCO-101 + FOLFIRI, normalized to irinotecan 90 mg/m2, day 5, read-out: T½ hours (SD) (converted)): 19 h | AUC(0-t) ([5]; human, plasma, intravenous, SN-38 study: 150 mg SCO-101 + FOLFIRI, normalized to irinotecan 90 mg/m2, read-out: AUC_0-24 h*ng/ml (SD)): 1420 ng·h/mL | SN-38 plasma Cmax ([6]; conventional irinotecan regime 180 mg/m^2, no SCO-101, public reference data): about 25 ng/ml | Time after which SN-38 plasma concentration becomes therapeutically ineffective ([6]; conventional irinotecan regime 180 mg/m^2): about 24 hours | AUC Mean (SD) [4]: 267 ng·h/mL | Cmax Mean (SD) [4]: 27.8 ng/mL
